Test results reported in US20190070165A1, “N-HYDROXYISOQUINOLINEDIONE INHIBITORS OF HBV REPLICATION” (Saint Louis University, priority 2016, published 2019).
Like-named read-outs stand apart in the source and are kept apart here.

Columns and labels:
[1] = tested on: patient-derived RNAseH enzymes; assay: Biochemical RNAseH assay with variant patient-derived RNAseH enzymes; design: species or system Hepatitis B virus; settings: compounds at their respective IC50 values, four genotype D enzymes
Procedure: HBV has 8 genotypes differing in sequence by 8%. Genetic diversity in the RNAseH domain is about 6%, which is easily high enough to modulate viral sensitivity to RNAseH inhibitors. […] Twelve purified, patient-derived RNAseH enzymes (4 from each genotypes B, C and D) were tested with the compounds at their respective IC50 values in a biochemical RNAseH assay. […] Equivalent results were obtained for all 12 enzymes against compounds #1 and #46. Therefore, HBV's high genetic variation is unlikely to present a substantial barrier to drug development.

HBV replication [2] = assay: Chou-Talalay synergy analysis with Lamivudine against HBV replication; settings: CI <1.0 indicates synergy
Procedure: Chou-Talaly analysis yields a combination index (CI). CI values <1.0 indicate synergy, CIs of approximately 1.0 indicate additive interactions, and CI values >1.0 indicate antagonism. CI values are calculated at various efficacy levels (EC50, EC75, EC90, and EC95), and a weighted CI value favoring higher efficacy levels is also generated.

HBV RNaseH [3] = target: T1, HBV RNaseH (Hepatitis B virus genotype D subtype ayw, UniProt P03156); assay: Molecular beacon RNaseH assay; settings: for inhibition in the molecular beacon assay: 2.1 μg purified HBV RNaseH; for Inhibition of HBV RNaseH, Molecular Beacon cleavage assay: Table 3, 0 to 500 μM
Target sequence in this assay (P03156 671-832): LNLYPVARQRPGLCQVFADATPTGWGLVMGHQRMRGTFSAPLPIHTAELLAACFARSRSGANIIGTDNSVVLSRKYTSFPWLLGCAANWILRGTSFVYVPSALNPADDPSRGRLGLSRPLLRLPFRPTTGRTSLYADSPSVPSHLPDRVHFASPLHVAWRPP
Procedure: In this assay, a hairpin DNA oligonucleotide labeled with fluorescein on one end and a quencher on the other is held in a linear conformation by annealing to a complementary RNA; cleavage of the RNA causes the DNA to fold into a hairpin, suppressing fluorescence (FIG. 8A).
The substrate is a hairpin DNA oligonucleotide with a 5′ fluorescein reporter and a 3′ black hole quencher annealed to a complementary RNA oligonucleotide. The reaction was initiated by adding 5 mM Mg^++, and fluorescence was monitored at 37° C. with a Synergy 4 96-well plate reader. Inhibition was qualitatively determined as a dose-dependent reduction in the rate of substrate degradation.

HBV replication [4] = assay: HBV replication inhibition assay in HepDES19 cells (strand-preferential q-PCR); type: cell-based, Hepatitis B virus; settings: Hepatitis B virus
Procedure: HBV replication assay. […] Cells were seeded into 6-well plates and incubated in DMEM/F12, 10% fetal bovine serum (FBS), 1% penicillin/streptomycin (P/S) with 1 μg/mL tetracycline. Tetracycline was withdrawn after 24 hours. The test compound was applied to duplicate wells 48 hours later in medium containing a final DMSO concentration of 1%, and medium containing the compound was refreshed daily for the following two days. Cells were harvested and non-encapsidated nucleic acids were digested with micrococcal nuclease (New England Biolabs). HBV DNA was purified from capsids using QIAamp Cador Pathogen Mini Kit (Qiagen) with proteinase K incubation overnight at 37° C. TaqMan PCR was performed for 40 cycles at an annealing temperature of 60° C.
Thirty-nine HID, HPD, flutimide, and related POH compounds (Structures shown in FIG. 3) were screened for their ability to inhibit HBV replication in HepDES19 cells. […] Inhibition was calculated as the amount of plus-polarity DNA relative to the DMSO treated controls.
Briefly, HepDES19 were seeded in 12-well plates at 2×10^5 cells per well in the absence of tetracycline. Test compound was applied to cells 48 hours after removal of tetracycline. […] HBV DNA was purified from capsids using a QIAamp pathogen minikit with proteinase K digestion extended to overnight at 37° C. TaqMan PCR was performed for 40 cycles with an annealing temperature of 60° C.

HBV RNaseH [5] = target: T1, HBV RNaseH; settings: for Inhibition of HBV RNaseH, Oligonucleotide directed cleavage assay: Table 3, compounds at 100, 60 and 20 μM, compounds 1-91 and 138-140 previously reported (Cai et al., 2014); for HBV RNaseH: Table 1, qualitative inhibition in biochemical assay
Target sequence in this assay (P03156 671-832): as above
Procedure: RNaseH expression and purification. […] The enriched extracts were dialyzed into 50 mM HEPES pH 7.3, 300 mM NaCl, 20% glycerol, and 5 mM DTT and stored in liquid nitrogen.
Oligonucleotide-directed RNA cleavage assay. […] This mixture was incubated with test compounds in 50 mM Tris pH 8.0, 190 mM NaCl, 5 mM MgCl2, 3.5 mM DTT, 0.05% NP40, 6% glycerol, and 1% DMSO at 42° C. for 90 minutes. Cleavage products were resolved by denaturing polyacrylamide gel electrophoresis, detected by autoradiography, and quantified using ImageJ. Non-specific background values were determined from the incorrect oligonucleotide negative control lane and subtracted from all experimental values. IC50 values were then calculated with GraphPad Prism using three-parameter log(inhibitor) vs. response non-linear curve fitting with the curve minimum set to zero to reflect background subtraction.
The HBV RNaseH inhibition activity of the 16 previously untested compounds was examined using an oligonucleotide-directed cleavage assay. Compounds were incubated with the HBV RNaseH, a ^32P-labeled RNA substrate plus a complementary DNA oligonucleotide and compounds at 100, 60, and 20 μM and the amount of the RNA cleavage products was measured following resolution on an acrylamide gel.
Briefly, a ^32P-labeled RNA was combined with a DNA oligonucleotide and the RNA:DNA substrate was incubated in the presence of the RNaseH and test compounds in 50 mM tris pH 8.0, 190 mM NaCl, 5 mM MgCl2, 3.5 mM DTT, 0.05% NP40, 6% glycerol, and 1% DMSO at 42° C. for 90 minutes. The products were resolved by gel electrophoresis and detected by audioradioagraphy.

HSV-1 = HSV-1 replication inhibition assay in Vero cells; type: cell-based, herpes simplex virus 1; settings: read-out: HSV-1 suppression (log10 at 5 μM), class symbol
Procedure: Thirty-seven compounds were counter-screened for efficacy against HSV-1 to evaluate specificity of the inhibitors and to help determine if the efficacy against HBV replication may be due to an unsuspected indirect effect on the cells. Vero cells infected with HSV-1 at an MOI of 0.1 were treated with 5 μM of compound for 24 hours. Inhibition was calculated as log 10 suppression of plaque forming units compared with DMSO vehicle control.
Vero cells were maintained DMEM supplemented with 3% newborn calf serum, 3% bovine growth serum, 2 mM L-glutamine, and P/S. Test compounds were applied to the cells in the presence of 0.05% DMSO. The herpes simplex virus 1 (HSV-1) strain used for screening was a de-identified clinical isolate from the Saint Louis University Hospital passaged once in culture.
Compounds and virus were diluted in phosphate buffered saline (PBS) containing 2% newborn calf serum and 2 mM L-glutamine so that the final concentration of compound was 5 μM. The cells were incubated at 37° C. for 1 hour with the virus containing inoculum, then the inoculum was removed and the wells were washed once in PBS. Compound diluted to 5 μM in supplemented DMEM was added and cells were incubated at 37° C. for an additional 23 hours. The plates were then microscopically inspected for cytopathic effect (CPE) or toxicity and then frozen at −80° C. Virus titers for wells with limited CPE compared to DMSO vehicle-treated controls were then determined by plaque assay on Vero cells. Each experiment was repeated at least once.

HIV replication = settings: literature values (Billamboz et al., 2011b; Suchaud et al., 2014); cited from earlier work
human RNaseH1 = target: T2, human RNaseH1 (Homo sapiens, UniProt O60930); assay: Oligonucleotide-directed RNA cleavage assay, human RNaseH1; type: biochemical; settings: for IC50: Table 1, quantitative values; for Human RNaseH1: Table 1, qualitative inhibition
T2 construct: made in house; host or cells: E. coli
T2 sequence (O60930 1-286): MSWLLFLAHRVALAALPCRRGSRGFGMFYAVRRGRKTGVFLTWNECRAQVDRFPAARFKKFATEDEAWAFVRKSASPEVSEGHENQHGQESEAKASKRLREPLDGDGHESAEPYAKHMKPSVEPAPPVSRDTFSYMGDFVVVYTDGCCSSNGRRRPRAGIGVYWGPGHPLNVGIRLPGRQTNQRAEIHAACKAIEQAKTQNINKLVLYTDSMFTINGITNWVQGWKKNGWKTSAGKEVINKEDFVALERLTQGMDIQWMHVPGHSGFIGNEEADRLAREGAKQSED
Excerpt: RNaseH expression and purification.
Oligonucleotide-directed RNA cleavage assay.

[6] = Neutral red (NR) cytotoxicity assay; type: cell-based; settings: human, HepDES19 cells, read-out: Toxicity in HepDES19, NR (CC50)
Procedure: (§1) To further evaluate potential cytotoxicity of these hits, the effect of the compounds was determined for the uptake of neutral red (NR) by the lysosomes and lactate dehydrogenase (LDH) release into the supernatant due to cell membrane permeability. […] Overall, the TI values in Table 3 and FIG. 4 indicate that cytotoxicity was not the cause of antiviral efficacy, although it may have contributed to the apparent efficacy for #84, 85, 90, and 91, which all have TI values below 5.

MTT cytotoxicity assay = type: cell-based; settings: human; Table 2, HepDES19 cells
Procedure: MTT cytotoxicity assays. 1.0×10^4 HepDES19 cells per well were seeded in 96-well plates and incubated in DMEM with 10% FBS plus 1% P/S, 1% non-essential amino acids, and 1% glutamine. Compounds were diluted in medium to the indicated concentrations plus 1% DMSO and added to cells 24 hours after plating, with each concentration tested in triplicate. Medium containing the compound was refreshed daily for the next two days. Thiazolyl blue tetrazolium bromide (MTT, Sigma-Aldrich) was added to 0.25 mg/mL, the cultures were incubated for 60 minutes, metabolites were solubilized in acidic isopropanol, and absorbance was read at 570 nm.

HepDES19 cells = assay: MTS cytotoxicity assay (CellTiter 96); settings: CC50 by MTS assay over EC50
Procedure: (§2) HepDES19 cells were seeded at 1×10^4 cells per well in a 96 well plate in the absence of tetracycline. The test compounds were applied in triplicate to the cells 48 hours later and the cells were incubated for 72 hours. Cell viability was measured using the CellTiter 96 Aqueous Non-Radioactive Cell Proliferation Assay (Promega). [3-(4,5-dimethylthiazol-2-yl)-5-(3-carboxymethoxyphenyl)-2-(4-sulfophenyl)-2H-tetrazolium, inner salt] (MTS) and phenazine methosulfate (PMS) solution at 2 mg/mL MTS and 0.043 mg/mL PMS were added to the medium, the cells were incubated for two hours at 37° C., and absorbance was measured at 490 nm. […] Neutral red was added to the media at a final concentration of 40 μg/mL. Cells were washed with PBS and incubated with neutral red medium for two hours at 37° C. The neutral red medium was removed and the cells were washed with PBS. […] Lactate dehydrogenase (LDH) release was measured using the LDH-cytotoxicity colorimetric assay kit (BioVision). Cells were lysed with 1% Triton-X to provide the high control and DMSO vehicle treatment was the low control. Supernatants were collected and transferred to a fresh 96 well plate, and LDH reaction mixture containing the catalyst and dye solution was added. The reaction was incubated for 15-20 minutes at room temperature in a dark box and absorbance was measured at 490 nm. Percent cytotoxicity was calculated as [(test sample−low control)/([…])]×100.

[7] = MTS cytotoxicity assay (CellTiter 96); settings: human
Procedure: as §2

[8] = Lactate dehydrogenase (LDH) release cytotoxicity assay; type: cell-based; settings: human, HepDES19 cells, read-out: Toxicity in HepDES19, LDH (CC50)
Procedure: as §1

HBV RNaseH [9] = target: T1, HBV RNaseH; assay: Detection of capsid-associated RNA:DNA heteroduplexes by Southern analysis; type: cell-based; design: expressed in transfected cells; host or cells: HepDES19 (HepG2 with a stably transfected HBV genotype D genome); settings: HepDES19 cells, seven days; #89 at 4×EC50 (10.4 μM), #138 at 30 μM
Procedure: RNA:DNA heteroduplexes migrate as double-stranded products, but degradation of the RNA strand with exogenous RNase causes the DNAs to migrate as single-stranded species. To test for accumulation of RNA:DNA heteroduplexes, HepDES19 cells replicating HBV were treated with 4×EC50 (10.4 μM) of compound #89 and 30 μM compound #138 (negative control). HBV cores were harvested after seven days of compound treatment. Capsid-associated nucleic acids were purified and split into two pools; one pool was treated with RNaseA and the other pool was mock treated.
HepDES19 cells were plated in 100 mm dishes without tetracycline and incubated for 72 hours in the absence of tetracycline before addition of compound #89 at 4×EC50 (10.4 μM) and the negative control compound #138 at 30 μM; compound-containing media was replaced every three days. HBV nucleic acids were purified seven days after compound addition. HBV core particles were isolated by sedimentation through a sucrose cushion as described (Tavis et al., 1998). Cores were treated overnight with proteinase K (0.5 mg/mL) and 1.5% SDS at 37° C. Nucleic acids were purified by phenol-chloroform extraction and ethanol precipitation. The nucleic acids were split into two pools. One pool was treated with RNaseA (1.5 μg/μL) at 37° C. for 30 minutes and the other was mock-treated. […]
Target sequence in this assay (P03156 whole entry): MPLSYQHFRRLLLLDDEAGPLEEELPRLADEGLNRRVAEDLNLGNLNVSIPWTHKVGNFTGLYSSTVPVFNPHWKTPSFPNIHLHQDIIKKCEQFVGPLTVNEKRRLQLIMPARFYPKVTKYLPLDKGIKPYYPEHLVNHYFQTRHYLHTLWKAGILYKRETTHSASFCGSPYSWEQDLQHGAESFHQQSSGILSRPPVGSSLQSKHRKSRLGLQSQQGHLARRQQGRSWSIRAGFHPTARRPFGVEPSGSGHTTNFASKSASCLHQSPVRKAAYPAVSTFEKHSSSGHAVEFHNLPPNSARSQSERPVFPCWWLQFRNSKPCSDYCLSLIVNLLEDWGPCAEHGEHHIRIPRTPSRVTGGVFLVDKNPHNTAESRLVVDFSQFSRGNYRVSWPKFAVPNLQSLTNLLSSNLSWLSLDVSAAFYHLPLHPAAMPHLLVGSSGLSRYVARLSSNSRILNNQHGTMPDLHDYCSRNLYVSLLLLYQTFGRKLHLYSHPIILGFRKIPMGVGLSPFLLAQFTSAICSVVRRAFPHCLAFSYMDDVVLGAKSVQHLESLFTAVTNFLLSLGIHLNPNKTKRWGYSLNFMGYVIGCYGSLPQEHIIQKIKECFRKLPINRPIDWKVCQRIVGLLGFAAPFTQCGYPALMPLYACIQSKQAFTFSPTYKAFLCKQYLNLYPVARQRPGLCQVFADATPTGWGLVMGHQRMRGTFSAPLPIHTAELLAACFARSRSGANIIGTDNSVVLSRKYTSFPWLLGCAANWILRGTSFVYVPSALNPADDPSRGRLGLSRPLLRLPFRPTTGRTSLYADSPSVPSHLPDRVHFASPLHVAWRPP

[10] = HepDES19, read-out: HBV replication inhibition (EC50, μm)
[11] = Human alphaherpesvirus 1, 24 h, 5 μM, Vero cells
[12] = HepDES19 cells, read-out: EC50, HBV replication
[13] = Table 2, HepDES19 cells, read-out: EC50

Structure (SMILES) | inhibition of variant genotype D RNAseH enzymes [1] | weighted combination index (CI) with Lamivudine (HBV replication [2]) | inhibition in the molecular beacon assay (HBV RNaseH [3]) | Inhibition of HBV RNaseH, Molecular Beacon cleavage assay (HBV RNaseH [3]) | EC50 (HBV replication [4]; [10]) | Inhibition of HBV RNaseH, Oligonucleotide directed cleavage assay (HBV RNaseH [5]) | log reduction at 5 µM (HSV-1; [11]) | EC50 (HIV replication) | EC50 (HBV replication [4]; [12]) | EC50 (HBV replication [4]; [13]) | HBV RNaseH (HBV RNaseH [5]) | IC50 (human RNaseH1) | CC50 at 72 h [6] | CC50 (MTT cytotoxicity assay) | TI (therapeutic index, CC50(MTS)/EC50) (HepDES19 cells) | CC50 at 72 h [7] | CC50 at 72 h [8] | Human RNaseH1 (human RNaseH1) | other results
O=C1Cc2ccccc2C(=O)N1O [Compound 1, 2-hydroxyisoquinoline-1,3(2H,4H)-dione] | about 50% | 0.70±0.1 | inhibited | + (Dose-dependent inhibition at ≤500 μM) | 4.2 ± 1.4 µM | + (Dose-dependent inhibition at ≤100 μM) | < 1 |  |  |  |  |  |  |  |  |  |  |  | 
CC(C)c1ccc(O)c(=O)c(O)c1 [Compound 46, β-thujaplicinol, reference compound] | about 50% | 0.44±0.3 |  |  |  |  |  |  |  |  |  |  |  |  |  |  |  |  | 
COC(=O)C1C(=O)N(O)C(=O)c2ccccc21 (centres unmarked) [Compound 81] |  |  | inhibited | + (Dose-dependent inhibition at ≤500 μM) | 4.4 ± 3 µM | − (No inhibition detected at 100 μM) |  | 13.4 µM | 4.4 µM | 4 µM | +/− | 4.9 µM |  |  |  |  |  |  | inhibition of RNA cleavage by HBV RNaseH (HBV RNaseH [5]; compounds at 100, 60 and 20 μM): negative; log reduction at 5 µM (HSV-1; Human alphaherpesvirus 1, Vero, 24 h): < 1
O=C(Nc1ccc2c(c1)C(=O)N(O)C(=O)C2C(=O)NCc1ccc(F)cc1)c1ccccc1 (centres unmarked) [Compound 86] |  |  |  | − (No inhibition detected at 500 μM) | 1.4 ± 0.3 µM | − (No inhibition detected at 100 μM) | < 1 | > 21 µM | 1.4 µM | 1.4 µM | +/− | 4 µM | 52 ± 11 µM | > 100 µM | 71 | 99 ± 2 µM | > 100 µM |  | 
COc1ccc2c(c1)C(=O)N(O)C(=O)C2C(=O)NCc1ccc(F)cc1 (centres unmarked) [Compound 88] |  |  |  | − (No inhibition detected at 500 μM) | 2.5 ± 0.5 µM | − (No inhibition detected at 100 μM) | < 1 |  |  |  |  |  | 26 ± 2 µM | 40 µM | 16 | 40 ± 6 µM | 57 ± 6 µM | +++ (detectable inhibition at 10 μM) | 
COc1ccc(CNC(=O)C2C(=O)N(O)C(=O)c3cc([N+](=O)[O-])ccc32)cc1 (centres unmarked) [Compound 89] |  |  |  | − (No inhibition detected at 500 μM) | 2.6 ± 0.8 µM | − (No inhibition detected at 100 μM) | < 1 |  |  |  |  |  |  |  |  |  |  | ++ (detectable inhibition at 20 μM) | accumulation of RNA:DNA heteroduplexes (HBV RNaseH [9]): caused RNA:DNA heteroduplexes to accumulate
